Measurements taken from article PMC5218480 (PLoS ONE, 2017).

System: MV-4-11 cells
Test: Gene expression microarray analysis (Affymetrix PrimeView) and GSEA
Type: cell-based, human
Set-up: RFU PODN (11730768_x_at) / Fold change /veh PODN (11730768_x_at) / RFU LINC00158 (11744669_a_at) / Fold change /veh LINC00158 (11744669_a_at) / RFU DUSP10 (11751237_a_at) / Fold change /veh DUSP10 (11751237_a_at) / RFU ID3 (11757404_x_at) / Fold change /veh ID3 (11757404_x_at) / RFU PLEKHG5 (11737974_s_at) / Fold change /veh PLEKHG5 (11737974_s_at) / RFU LRRC4B (11730491_at) / Fold change /veh LRRC4B (11730491_at) / RFU GIMAP4 (11747438_a_at) / Fold change /veh GIMAP4 (11747438_a_at) / RFU KRT8 (11758183_x_at) / Fold change /veh KRT8 (11758183_x_at) / RFU CNN1 (11734310_a_at) / Fold change /veh CNN1 (11734310_a_at) / RFU VPS37D (11726825_at) / Fold change /veh VPS37D (11726825_at) / RFU C10orf10 (11716522_x_at) / Fold change /veh C10orf10 (11716522_x_at) / RFU KIR2DL2 /// KIR2DL4 /// KIR2DL5A /// KIR2DL5B /// KIR2DS1 /// KIR2DS2 /// KIR2DS3 /// KIR2DS4 /// KIR3DL3 /// KIR3DL3 /// KIR3DS1 (11738374_at) / Fold change /veh KIR2DL2 /// KIR2DL4 /// KIR2DL5A /// KIR2DL5B /// KIR2DS1 /// KIR2DS2 /// KIR2DS3 /// KIR2DS4 /// KIR3DL3 /// KIR3DL3 /// KIR3DS1 (11738374_at) / RFU C1QL1 (11718748_at) / Fold change /veh C1QL1 (11718748_at) / RFU TMPRSS4 (11747572_a_at) / Fold change /veh TMPRSS4 (11747572_a_at) / RFU HAMP (11756126_x_at) / Fold change /veh HAMP (11756126_x_at) / RFU RNFT2 (11725882_a_at) / Fold change /veh RNFT2 (11725882_a_at) / RFU NR4A2 (11747474_a_at) / Fold change /veh NR4A2 (11747474_a_at) / RFU ABCC12 (11746883_a_at) / Fold change /veh ABCC12 (11746883_a_at) / RFU TMEM136 (11760407_x_at) / Fold change /veh TMEM136 (11760407_x_at) / RFU CLDN22 /// WWC2 (11732394_at) / Fold change /veh CLDN22 /// WWC2 (11732394_at) / RFU HLA-DPB1 (11760878_x_at) / Fold change /veh HLA-DPB1 (11760878_x_at) / RFU SPINT1 (11716480_a_at) / Fold change /veh SPINT1 (11716480_a_at) / RFU GAP43 (11754022_s_at) / Fold change /veh GAP43 (11754022_s_at) / RFU A4GNT (11735810_at) / Fold change /veh A4GNT (11735810_at) / RFU PRB3 (11715151_x_at) / Fold change /veh PRB3 (11715151_x_at) / RFU TUBB4B (11761932_at) / Fold change /veh TUBB4B (11761932_at) / RFU CAPN14 (11732068_a_at) / Fold change /veh CAPN14 (11732068_a_at) / RFU TMCC2 (11721928_a_at) / Fold change /veh TMCC2 (11721928_a_at) / RFU IRGQ (11745062_a_at) / Fold change /veh IRGQ (11745062_a_at) / RFU FAM174B (11720279_a_at) / Fold change /veh FAM174B (11720279_a_at) / RFU TMPRSS4 (11748680_a_at) / Fold change /veh TMPRSS4 (11748680_a_at) / RFU FAM212B (11763350_a_at) / Fold change /veh FAM212B (11763350_a_at) / RFU PLEKHG5 (11743358_a_at) / Fold change /veh PLEKHG5 (11743358_a_at) / RFU ZSCAN30 (11745921_a_at) / Fold change /veh ZSCAN30 (11745921_a_at) / RFU CMKLR1 (11741424_a_at) / Fold change /veh CMKLR1 (11741424_a_at) / RFU LOC101060620 /// MAPK8IP1 (11723275_at) / Fold change /veh LOC101060620 /// MAPK8IP1 (11723275_at) / RFU SPTSSB (11747773_x_at) / Fold change /veh SPTSSB (11747773_x_at) / RFU PRSS12 (11739890_at) / Fold change /veh PRSS12 (11739890_at) / RFU BIN1 (11741810_x_at) / Fold change /veh BIN1 (11741810_x_at) / RFU WNT11 (11732464_a_at) / Fold change /veh WNT11 (11732464_a_at) / RFU C10orf10 (11716521_a_at) / Fold change /veh C10orf10 (11716521_a_at) / RFU C5orf56 (11738089_at) / Fold change /veh C5orf56 (11738089_at) / RFU CYB561 (11721691_x_at) / Fold change /veh CYB561 (11721691_x_at) / RFU ANKRD19P (11752326_a_at) / Fold change /veh ANKRD19P (11752326_a_at) / RFU OR2T12 /// OR2T33 /// OR2T8 (11738714_s_at) / Fold change /veh OR2T12 /// OR2T33 /// OR2T8 (11738714_s_at) / RFU VCAN (11748164_a_at) / Fold change /veh VCAN (11748164_a_at) / RFU JSRP1 (11732532_at) / Fold change /veh JSRP1 (11732532_at) / RFU KRTAP10-11 (11738290_x_at) / Fold change /veh KRTAP10-11 (11738290_x_at) / RFU MYO3A (11730013_a_at) / Fold change /veh MYO3A (11730013_a_at) / RFU EBF3 (11725865_a_at) / Fold change /veh EBF3 (11725865_a_at) / RFU CAMK2N1 (11719241_x_at) / Fold change /veh CAMK2N1 (11719241_x_at) / RFU C5orf56 (11738088_a_at) / Fold change /veh C5orf56 (11738088_a_at) / RFU OLFML3 (11715873_a_at) / Fold change /veh OLFML3 (11715873_a_at) / RFU LOC100653217 /// NTM (11731650_a_at) / Fold change /veh LOC100653217 /// NTM (11731650_a_at) / RFU MAPK11 (11762145_a_at) / Fold change /veh MAPK11 (11762145_a_at) / RFU FIZ1 (11724087_x_at) / Fold change /veh FIZ1 (11724087_x_at) / RFU OASL (11726364_x_at) / Fold change /veh OASL (11726364_x_at) / RFU SOX15 (11748057_x_at) / Fold change /veh SOX15 (11748057_x_at) / RFU CD79A (11719716_a_at) / Fold change /veh CD79A (11719716_a_at) / RFU HIST1H1D (11736915_at) / Fold change /veh HIST1H1D (11736915_at) / RFU CASKIN2 (11723855_a_at) / Fold change /veh CASKIN2 (11723855_a_at) / RFU LOC730098 (11760151_x_at) / Fold change /veh LOC730098 (11760151_x_at) / RFU OR4N2 (11742367_at) / Fold change /veh OR4N2 (11742367_at) / RFU PRRT2 (11749266_a_at) / Fold change /veh PRRT2 (11749266_a_at) / RFU SNX32 (11753110_a_at) / Fold change /veh SNX32 (11753110_a_at) / RFU CDHR5 (11726645_a_at) / Fold change /veh CDHR5 (11726645_a_at) / RFU RCAN1 (11760418_a_at) / Fold change /veh RCAN1 (11760418_a_at) / RFU FAM167A (11723789_a_at) / Fold change /veh FAM167A (11723789_a_at) / RFU FAM26E (11764081_at) / Fold change /veh FAM26E (11764081_at) / RFU ISYNA1 (11749810_s_at) / Fold change /veh ISYNA1 (11749810_s_at) / RFU ACY1 (11761880_at) / Fold change /veh ACY1 (11761880_at) / RFU 11764098_at / Fold change /veh 11764098_at / RFU SAMD14 (11745864_x_at) / Fold change /veh SAMD14 (11745864_x_at) / RFU NPB (11741838_a_at) / Fold change /veh NPB (11741838_a_at) / RFU TMPRSS6 (11731388_a_at) / Fold change /veh TMPRSS6 (11731388_a_at) / RFU KRTAP10-2 (11738614_at) / Fold change /veh KRTAP10-2 (11738614_at) / RFU ARHGAP8 /// PRR5-ARHGAP8 (11727945_x_at) / Fold change /veh ARHGAP8 /// PRR5-ARHGAP8 (11727945_x_at) / RFU KRTAP5-7 /// NADSYN1 (11734609_at) / Fold change /veh KRTAP5-7 /// NADSYN1 (11734609_at) / RFU RASL12 (11751679_a_at) / Fold change /veh RASL12 (11751679_a_at) / RFU CDKN2B (11736163_a_at) / Fold change /veh CDKN2B (11736163_a_at) / RFU PRF1 (11729649_at) / Fold change /veh PRF1 (11729649_at) / RFU, ZNF638 /// ZNF638-IT1 / Fold change vs veh, ZNF638 /// ZNF638-IT1 / RFU, PANK3 / Fold change vs veh, PANK3 / RFU, SH3YL1 / Fold change vs veh, SH3YL1 / RFU, ZEB2 / Fold change vs veh, ZEB2 / RFU, NRIP1 / Fold change vs veh, NRIP1 / RFU, PTTG1IP / Fold change vs veh, PTTG1IP / RFU, CAPN2 / Fold change vs veh, CAPN2 / RFU, MED14 / Fold change vs veh, MED14 / RFU, SNORA58 / Fold change vs veh, SNORA58 / RFU, C1orf63 / Fold change vs veh, C1orf63 / RFU, LRRFIP1 / Fold change vs veh, LRRFIP1 / RFU, NDUFAF7 / Fold change vs veh, NDUFAF7 / RFU, SLC12A2 / Fold change vs veh, SLC12A2 / RFU, IBTK / Fold change vs veh, IBTK / RFU, ESF1 / Fold change vs veh, ESF1 / Fold change vs veh, TMEM50B / RFU, TAOK1 / Fold change vs veh, TAOK1 / RFU, ACBD3 / Fold change vs veh, ACBD3 / RFU, TMA16 / Fold change vs veh, TMA16 / RFU, RWDD3 / Fold change vs veh, RWDD3 / RFU, BCAT1 / Fold change vs veh, BCAT1 / RFU, EDEM3 / Fold change vs veh, EDEM3 / RFU, TMEM33 / Fold change vs veh, TMEM33 / RFU, WDR75 / Fold change vs veh, WDR75 / RFU, AHCTF1 / Fold change vs veh, AHCTF1 / RFU, TFRC / Fold change vs veh, TFRC / RFU, ZDHHC17 / Fold change vs veh, ZDHHC17 / RFU, NOM1 / Fold change vs veh, NOM1 / RFU, ARL8B / Fold change vs veh, ARL8B / RFU, ZBTB11 / Fold change vs veh, ZBTB11 / RFU, TAMM41 / Fold change vs veh, TAMM41 / RFU, KIAA1704 /// LOC100996395 / Fold change vs veh, KIAA1704 /// LOC100996395 / RFU, ING1 / Fold change vs veh, ING1 / RFU, TRMT61B / Fold change vs veh, TRMT61B / RFU, FUBP3 / Fold change vs veh, FUBP3 / RFU, TP53 / Fold change vs veh, TP53 / RFU, TNKS2 / Fold change vs veh, TNKS2 / RFU, ZFP14 / Fold change vs veh, ZFP14 / RFU, ACTR2 / Fold change vs veh, ACTR2 / RFU, PPP3R1 / Fold change vs veh, PPP3R1 / RFU, PIK3R1 / Fold change vs veh, PIK3R1 / RFU, HNRNPA1 / Fold change vs veh, HNRNPA1 / RFU, RNF170 / Fold change vs veh, RNF170 / RFU, ZNF28 / Fold change vs veh, ZNF28 / RFU, RNGTT / Fold change vs veh, RNGTT / RFU, OGT / Fold change vs veh, OGT / RFU, BRD1 / Fold change vs veh, BRD1 / RFU, MARS / Fold change vs veh, MARS / RFU, ZNF655 / Fold change vs veh, ZNF655 / RFU, FAHD1 / Fold change vs veh, FAHD1 / RFU, BDP1 / Fold change vs veh, BDP1 / RFU, LRRCC1 / Fold change vs veh, LRRCC1 / RFU, ARID1A / Fold change vs veh, ARID1A / RFU, ZNF146 / Fold change vs veh, ZNF146 / RFU, ZNF330 / Fold change vs veh, ZNF330 / RFU, GPN3 / Fold change vs veh, GPN3 / RFU, C9orf123 / Fold change vs veh, C9orf123 / RFU, N4BP2L2 / Fold change vs veh, N4BP2L2 / RFU, ARFIP1 / Fold change vs veh, ARFIP1 / RFU, FAM179B / Fold change vs veh, FAM179B / RFU, BCL10 / Fold change vs veh, BCL10 / RFU, UHRF1BP1L / Fold change vs veh, UHRF1BP1L / RFU, BET1 / Fold change vs veh, BET1 / RFU, CNOT2 / Fold change vs veh, CNOT2 / RFU, ZNF268 / Fold change vs veh, ZNF268 / Fold change vs veh, ZNF507 / RFU, DGCR2 / Fold change vs veh, DGCR2 / RFU, WDSUB1 / Fold change vs veh, WDSUB1 / Fold change vs veh, HSP90B1 /// MIR3652 / RFU, ADSS / Fold change vs veh, ADSS / RFU, GK / Fold change vs veh, GK / RFU, ZNF148 / Fold change vs veh, ZNF148 / RFU, TAF9 / Fold change vs veh, TAF9 / RFU, SLC1A5 / Fold change vs veh, SLC1A5 / RFU, SLMO2 / Fold change vs veh, SLMO2 / RFU, ABCC4 / Fold change vs veh, ABCC4 / RFU, LOC101060439 /// RAP1B / Fold change vs veh, LOC101060439 /// RAP1B / RFU, RFX7 / Fold change vs veh, RFX7 / RFU, GTPBP10 / Fold change vs veh, GTPBP10 / RFU, CNEP1R1 / Fold change vs veh, CNEP1R1 / RFU, BIVM-ERCC5 /// ERCC5 / Fold change vs veh, BIVM-ERCC5 /// ERCC5 / RFU, ILF3 / Fold change vs veh, ILF3 / RFU 11762660_at / Fold change /veh 11762660_at / RFU VCAN (11757783_s_at) / Fold change /veh VCAN (11757783_s_at) / RFU DDX43 (11728927_at) / Fold change /veh DDX43 (11728927_at) / RFU KRT8 (11758188_x_at) / Fold change /veh KRT8 (11758188_x_at) / RFU NKD1 (11759106_at) / Fold change /veh NKD1 (11759106_at) / RFU SRD5A1 (11742802_a_at) / Fold change /veh SRD5A1 (11742802_a_at) / RFU TPSAB1 /// TPSB2 (11721975_s_at) / Fold change /veh TPSAB1 /// TPSB2 (11721975_s_at) / RFU GSTM3 (11746129_a_at) / Fold change /veh GSTM3 (11746129_a_at) / RFU IL23R (11737362_x_at) / Fold change /veh IL23R (11737362_x_at) / RFU TMEM51 (11727254_a_at) / Fold change /veh TMEM51 (11727254_a_at) / RFU PIWIL2 (11732686_x_at) / Fold change /veh PIWIL2 (11732686_x_at) / RFU ORM1 (11744905_x_at) / Fold change /veh ORM1 (11744905_x_at) / RFU CCDC152 (11743942_at) / Fold change /veh CCDC152 (11743942_at) / RFU ECM1 (11717891_a_at) / Fold change /veh ECM1 (11717891_a_at) / RFU IL23R (11748794_a_at) / Fold change /veh IL23R (11748794_a_at) / RFU TNFAIP8L3 (11732012_x_at) / Fold change /veh TNFAIP8L3 (11732012_x_at) / RFU MBOAT4 (11741988_at) / Fold change /veh MBOAT4 (11741988_at) / RFU 11764193_at / Fold change /veh 11764193_at / RFU TMEM53 (11763286_at) / Fold change /veh TMEM53 (11763286_at) / RFU MAGEB2 (11727129_at) / Fold change /veh MAGEB2 (11727129_at) / RFU TMEM200A (11744735_a_at) / Fold change /veh TMEM200A (11744735_a_at) / RFU CCDC152 (11751479_a_at) / Fold change /veh CCDC152 (11751479_a_at) / RFU FAM211A (11726209_a_at) / Fold change /veh FAM211A (11726209_a_at) / RFU RGS16 (11746705_a_at) / Fold change /veh RGS16 (11746705_a_at) / RFU VCAN (11755009_s_at) / Fold change /veh VCAN (11755009_s_at) / RFU RHOB (11743442_s_at) / Fold change /veh RHOB (11743442_s_at) / RFU RGS16 (11720943_a_at) / Fold change /veh RGS16 (11720943_a_at) / RFU RGS16 (11720944_at) / Fold change /veh RGS16 (11720944_at) / RFU, VPS4B / Fold change vs veh, VPS4B / RFU, CREB1 / Fold change vs veh, CREB1 / RFU, DNAJC13 / Fold change vs veh, DNAJC13 / RFU, GNAQ / Fold change vs veh, GNAQ / RFU, CDK5R1 / Fold change vs veh, CDK5R1 / RFU, ZRANB3 / Fold change vs veh, ZRANB3 / RFU, CUL4A / Fold change vs veh, CUL4A / RFU, CCNY / Fold change vs veh, CCNY / RFU, UFL1 / Fold change vs veh, UFL1 / RFU, COG3 / Fold change vs veh, COG3 / RFU, DIAPH2 / Fold change vs veh, DIAPH2 / RFU, SKA2 / Fold change vs veh, SKA2 / RFU, AFF3 / Fold change vs veh, AFF3 / RFU, LMF1 / Fold change vs veh, LMF1 / RFU, IPO11 / Fold change vs veh, IPO11 / RFU, DFFB / Fold change vs veh, DFFB / RFU, FOXP1 / Fold change vs veh, FOXP1 / RFU, CARD8 / Fold change vs veh, CARD8 / RFU, STRN3 / Fold change vs veh, STRN3 / RFU, ADK / Fold change vs veh, ADK / RFU, RASSF2 / Fold change vs veh, RASSF2 / RFU, WIPF1 / Fold change vs veh, WIPF1 / RFU, LARP1B / Fold change vs veh, LARP1B / RFU, RASA1 / Fold change vs veh, RASA1 / RFU, RB1 / Fold change vs veh, RB1 / RFU, PPFIA1 / Fold change vs veh, PPFIA1 / RFU, MAT2A / Fold change vs veh, MAT2A / RFU, CCT5 / Fold change vs veh, CCT5 / RFU, WDR92 / Fold change vs veh, WDR92 / RFU, CUX1 / Fold change vs veh, CUX1 / RFU, TTC7A / Fold change vs veh, TTC7A / RFU, TMEM135 / Fold change vs veh, TMEM135 / RFU, DEPTOR / Fold change vs veh, DEPTOR / RFU, CPM / Fold change vs veh, CPM / RFU, DNAJB6 / Fold change vs veh, DNAJB6 / RFU, CACNA2D3 / Fold change vs veh, CACNA2D3 / RFU, DTX4 / Fold change vs veh, DTX4 / RFU, TFCP2 / Fold change vs veh, TFCP2 / RFU, GMCL1 /// GMCL1P1 / Fold change vs veh, GMCL1 /// GMCL1P1 / RFU, AEBP2 / Fold change vs veh, AEBP2 / RFU, SNHG1 /// SNORD22 /// SNORD25 /// SNORD26 /// SNORD27 /// SNORD28 /// SNORD29 /// SNORD31 / Fold change vs veh, SNHG1 /// SNORD22 /// SNORD25 /// SNORD26 /// SNORD27 /// SNORD28 /// SNORD29 /// SNORD31 / Fold change (Aza/veh), C12orf56 (ProbeSet 11735607_a_at) / Fold change (ACY-1035/veh), C12orf56 (ProbeSet 11735607_a_at) / Fold change (Aza/veh), FGFR1OP (ProbeSet 11751329_s_at) / Fold change (ACY-1035/veh), FGFR1OP (ProbeSet 11751329_s_at) / Fold change (Aza/veh), VPS36 (ProbeSet 11739960_a_at) / Fold change (ACY-1035/veh), VPS36 (ProbeSet 11739960_a_at) / RFU SYPL1 (11715823_x_at) / Fold change /veh SYPL1 (11715823_x_at) / RFU IGFBP7 (11715501_s_at) / Fold change /veh IGFBP7 (11715501_s_at) / RFU REEP3 (11722064_at) / Fold change /veh REEP3 (11722064_at) / RFU IGLL1 (11728026_x_at) / Fold change /veh IGLL1 (11728026_x_at): dose or concentration left out as unconfirmed
Details: ProbeSet 11758397_s_at; LIST B

For `Nc1ncn([C@@H]2O[C@H](CO)[C@@H](O)[C@H]2O)c(=O)n1` [azacitidine], the “Fold change vs veh, RNF170” value was 1.07.
